Here are results for 21 compounds from patent US20250195508A1, “COMPOUNDS AND COMPOSITIONS FOR ANITMALARIAL THERAPEUTIC AND PROPHYLACTIC USE” (UNIVERSITY OF CENTRAL FLORIDA RESEARCH FOUNDATION, INC., priority 2022, published 2025).

The test system of one assay is Pb-Luc sporozoites. The experiment in a line: Therapeutic assay, 4-day Peters test against Pb-Luc sporozoites. Conditions: 4 doses of 15 mg/kg at 6, 18, 30, 42 hours post infection. The class given is in vivo, mice. The procedure:
(§1) TL5-135 was dissolved or resuspended in a suspending vehicle consisting of 30% DMSO, 1% methylcellulose, 0.5% TWEEN-80, and 68.5% ultrapure water. GNF179 was resuspended in 30% DMSO, 30% PEG400, 5% TWEEN-80, 35% saline, and administered intravenously.
(§2) For prophylaxis assays, a single dose of […] was administrated 6 hours before infection. For therapeutic assays, in a 4-day's Peters test, 4 doses (each 15 mg/kg) were administrated 6, 18, 30, and 42 hours post infection.
(§3) The antimalarial activity was measured as a percent reduction in parasitemia from day one until day twelve post-infection.
However, the mice treated with TL5-135 as a therapeutic had about 2.4% parasitemia after 12 days post-infection (all negative control mice died between days 11-13). The parasitemia on day 21 (21 days post-infection) for the group of mice was 35%.
(§4) Groups of 5 mice were infected with 100,000 Pb-Luc sporozoites by IV injection. Prophylactic (single dose of 50 mg/kg through IV injection, 6 hour before infection) and therapeutic (4-day Peters test, 4 doses of 15 mg/kg each time were administrated post-infection at 6, 18, 30, and 42 hours post infection (hpi) and the activity of the compounds was evaluated. See FIG. 8A. The parasitemia was estimated after flow cytometric enumeration of rodent malaria parasite Pb-Luc-infected red blood cells (RBS) stained with SYBR Green I, from day 3 until 20.
(§5) TL5-135 and GNF179 antimalarial compounds were tested against Pb-Luc sporozoites. Prophylactic activity (single dose of 15 mg/kg through an IV injection, 6 hours before infection) and therapeutic activity (4-day Peters test, 4 doses of 15 mg/kg each time was administrated at 6, 18, 30, and 42 hpi of the TL5-135 antimalarial compound was evaluated. As before, groups of five mice were infected with 100,000 Pb-Luc sporozoites by IV injection. The parasitemia was estimated after flow cytometric enumeration of rodent malaria parasite Pb-Luc-infected red blood cells (RBS) stained with SYBR Green I, from day 3 until day 20. See FIG. 8B.

The test system of assay [1] is P. berghei luc sporozoites (Pb-Luc). The experiment in a line: Prophylaxis assay, single IV dose 6 hours before Pb-Luc sporozoite infection. The class given is in vivo, mice. Conditions: single dose 15 mg/kg 6 hours before infection; after 22 days. As for the experimental part: as §1, §2, §3
Infection was initiated using 100,000 P. berghei luc sporozoites (Pb-Luc). The drugs were administered IV at 50 mg/kg, single dose 6 hours prior. I: infected, UI: uninfected.
as §4, §5

The subject of assay [2] is P. falciparum Dd2. In words: 72 h SYBR Green I assay (Dd2 Proliferation Assay). The format is cell-based. The procedure:
Several analogs were synthesized based on the structure of TL5-135 for further study. […] For the data in Table 1, compounds were subjected to in vitro biochemical kinase assays done using recombinant human ephrin type-A receptor 2 (EPHA2) (expressed in insect cells) in a Z′-LYTE® FRET-based kinase assay. P. falciparum Dd2 EC50 was determined using the standard 72 hour SYBR Green I assay (Dd2 Proliferation Assay) as known in the art. […] The structures of compoundsTL5-134, TL5-139, and TL5-145 are shown below.
In vitro biochemical kinase assays were done using recombinant human EPHA2 (expressed in insect cells) in a Z′-LYTE® FRET-based kinase assay. P. falciparum Dd2 EC50 was determined using the standard 72 h SYBR Green I assay.
Asynchronous blood stage P. falciparum Dd2 cultures were plated at 1% parasitemia and 1% hematocrit in a 96-well plate and incubated with serial dilutions of compound for 72 hours at 37° C. in 5% CO2. DMSO concentrations were kept at a sub-lethal percentage (<0.2%). Five micromolar chloroquine was used as a negative parasite growth control. Plates were then frozen at −80° C. and thawed, and 100 μL SYBR Green I-containing lysis buffer (20 mM Tris-HCl, 5 mM EDTA, 0.8% Triton X-100, 0.08% saponin, and 0.0001% SYBR Green I) was added to the wells. After incubation for 45 minutes at room temperature protected from light, fluorescence emission was read with a multimode microplate reader, at 485 nm excitation and 530 nm emission. Results were normalized using untreated and chloroquine-treated controls, and EC50 was determined with CDD Vault.
To establish the utility of kinase inhibitor compounds synthesized in the Gray laboratory as a source of novel antimalarial activities, the libraries (containing 1,100 compounds) were screened using the well-established SYBR Green I-based fluorescence assay as known in the art. This screen yielded 34 compounds with EC50<500 nM in the CQ^R Dd2 strain. These hits were subjected to counter-screening against human HepG2 cells using CellTiter 96® AQueous (Promega™) MTS-based cell proliferation assay to identify asexual and liver stage antiplasmodial hits.
P. falciparum Dd2 EC50 was determined using SYBR Green I assay. For the selectivity index ([…]) cytotoxicity was determined using CellTiter 96® AQueous MTS. The liver stage assay was performed using P. berghei luciferase expressing parasites. All assays were performed with technical quadruplicates and 3 biological replicates. Assays have a Z′ factor >0.7.

The subject of assay [3] is P. falciparum Dd2. In words: Rate of killing assay. The format is cell-based. Conditions: 10×EC50, 12-hour exposure then wash off. The procedure: Asynchronous P. falciparum Dd2 cultures were plated at 1% parasitemia, 4% hematocrit into a 24-well plate, incubated at 37° C. in 5% CO2. Wells were treated with 10×EC50 of compound for 12, 24, or 48 hours before the compound was removed. Every 24 hours thereafter for 4 days total, culture samples were washed in 0.5% BSA and stained with 1×SYBR Green I and 60 μM MitoTracker Deep Red FM for 20 minutes at 37° C. After another wash in 0.5% BSA, samples were resuspended in PBS and analyzed via flow cytometry with a CytoFLEX S™, with 100,000 events recorded per sample. For gating, the following controls were used: uninfected RBCs, untreated culture, DHA-treated culture, and untreated culture without MitoTracker stain. Viable parasite percentage was determined by finding the fraction of SYBR Green/MitoTracker double positive cells from the total events. Analysis was performed with FlowJo software Version 10.
Asynchronous cultures of P. falciparum Dd2 parasites were treated with 10×EC50 of the indicated compound for 12 hours prior to compound wash off. Flow cytometry with SYBR Green I (nuclear dye) and Mitotracker Deep Red FM (mitochondria staining) was done after compound wash-off every 24 hours after for […] (100,000 events/sample) to track parasitemia (data from 3 biological replicates±SEM).

The mark [4] stands for this setting: 72 hour SYBR Green I, Table 2, read-out: Dd2 EC50 (nM) ± SD.
Where [5] appears, read: Plasmodium falciparum, DD2, 72 hour SYBR Green I, Table 2, read-out: Dd2 EC50 (nM) ± SD.
The mark [6] stands for this setting: Plasmodium falciparum, DD2, 72 h, read-out: Antiplasmodial Dd2 EC50 (nM) ± SD.

Where two headings read alike, the source gives them in different places.

Turning to `CC1(C)c2nc(-c3ccc(F)cc3)c(Nc3ccc(Cl)cc3)n2CCN1C(=O)CN` [GNF179, reference compound], the “Condition of mice after therapeutic treatment” value in the assay with Pb-Luc sporozoites is “healthy and without parasites”. Besides, the “Condition of mice after prophylactic treatment” value in assay [1] is “still healthy and alive”.
For the compound `CCN1CCN(Cc2ccc(NC(=O)c3cc(Cl)cc(NC(=O)c4cncc(-c5ccco5)c4)c3)cc2C(F)(F)F)CC1` [LSW-03-006], the EC50 (as a rule, the concentration needed to bring the measured effect to its halfway point) in the assay with P. falciparum Dd2 [2] (setting [4]) amounted to 97.2 ± 23.3 nM.
On the same count and under the same terms, as for `CCN1CCN(Cc2ccc(NC(=O)c3cc(Cl)cc(NC(=O)c4cncc(C)c4)c3)cc2C(F)(F)F)CC1` [LSW-03-007], the figure is 164 ± 14.7 nM.
Consider `CCN1CCN(Cc2ccc(NC(=O)c3cc(Cl)cc(NC(=O)c4cccnc4)c3)cc2C(F)(F)F)CC1` [LSW-03-008], for which, in the assay on P. falciparum Dd2 [2] (setting [5]), the EC50 was 407 ± 56 nM.
With `CCN1CCN(Cc2ccc(NC(=O)c3cc(Cl)cc(NCc4cncc(-c5cccs5)c4)c3)cc2C(F)(F)F)CC1` [LSW-03-014], the EC50 in the assay with P. falciparum Dd2 [2] (setting [5]) amounted to 315 ± 18.7 nM.
In the case of `CCN1CCN(Cc2ccc(NC(=O)c3cc(Cl)cc(NC(=O)c4cccc(-c5cccs5)c4)c3)cc2C(F)(F)F)CC1` [LSW-03-015], the EC50 in the assay with P. falciparum Dd2 [2] (setting [4]) came to 314 ± 17.4 nM.
In the case of `CCN1CCN(Cc2ccc(NC(=O)c3cc(Cl)cc(NC(=O)c4cncc(-c5cccs5)c4)c3)cc2)CC1` [LSW-03-030], the EC50 in the assay on P. falciparum Dd2 [2] (setting [4]) stood at 99.6 ± 8.6 nM.
For the compound `O=C(Nc1cccc(C(F)(F)F)c1)c1cc(Cl)cc(NC(=O)c2cncc(-c3cccs3)c2)c1` [LSW-03-033], the EC50 in the assay on P. falciparum Dd2 [2] (setting [4]) amounted to 422 ± 36 nM.
With `CCN1CCN(Cc2ccc(NC(=O)c3cc(F)cc(NC(=O)c4cncc(-c5cccs5)c4)c3)cc2C(F)(F)F)CC1` [LSW-03-054], the EC50 in the assay with P. falciparum Dd2 [2] (setting [4]) amounted to 99.5 ± 12.7 nM.
For the compound `CCN1CCN(Cc2ccc(NC(=O)c3cc(NC(=O)c4cncc(-c5cccs5)c4)cc(C(F)(F)F)c3)cc2C(F)(F)F)CC1` [LSW-03-055], the EC50 in the assay on P. falciparum Dd2 [2] (setting [4]) came to 86.6 ± 2.92 nM.
Turning to `CCN1CCN(Cc2ccc(NC(=O)c3cc(NC(=O)c4cncc(-c5cccs5)c4)cc(Cl)c3F)cc2C(F)(F)F)CC1` [LSW-03-059], in the assay with P. falciparum Dd2 [2] (setting [4]), the EC50 was 104 ± 8.67 nM.
For `CCN1CCN(Cc2ccc(NC(=O)c3cc(NC(=O)c4cncc(-c5cccs5)c4)ccc3F)cc2C(F)(F)F)CC1` [LSW-03-067], the EC50 in the assay on P. falciparum Dd2 [2] (setting [4]) turned out to be 867 ± 68.3 nM.
Regarding `CCN1CCN(Cc2ccc(NC(=O)c3cc(Br)cc(NC(=O)c4cncc(-c5cccs5)c4)c3)cc2C(F)(F)F)CC1` [LSW-03-071], the EC50 with P. falciparum Dd2 [2] (setting [4]) turned out to be 108 ± 9.08 nM.
Turning to `CCN1CCN(Cc2ccc(NC(=O)c3cc(Cl)cc(NC(=O)c4cncnc4)c3)cc2C(F)(F)F)CC1` [LSW-03-072], in the assay with P. falciparum Dd2 [2] (setting [4]), the EC50 was determined as 330 ± 27.4 nM.
Consider `CCN1CCN(Cc2ccc(NC(=O)c3cc(Cl)cc(NC(=O)c4cncc(-c5ccc(C#N)cc5)c4)c3)cc2C(F)(F)F)CC1` [LSW-03-077], for which the EC50 with P. falciparum Dd2 [2] (setting [4]) was 43.8 ± 7.9 nM.
Consider `CCN1CCN(Cc2ccc(NC(=O)c3cc(Cl)cc(NC(=O)N4CCN(C)CC4)c3)cc2C(F)(F)F)CC1` [LSW-03-080], for which the EC50 with P. falciparum Dd2 [2] (setting [5]) came out at 2120 nM.
For the compound `O=C(Nc1ccnc(N2CCOCC2)c1)c1cc(Cl)cc(NC(=O)c2cncc(-c3cccs3)c2)c1` [LSW-03-081], the EC50 with P. falciparum Dd2 [2] (setting [4]) came out at 732 ± 124 nM.
On to `CCN1CCN(Cc2ccc(NC(=O)c3cc(NC(=O)c4cncc(-c5cccs5)c4)cc(OC)c3)cc2C(F)(F)F)CC1` [TL5-134], for which the EC50 with P. falciparum Dd2 [2] (setting [6]) was 341 nM.
Still for that read-out and setting: as for `CCN1CCN(Cc2ccc(NC(=O)c3cncc(NC(=O)c4cncc(-c5cccs5)c4)c3)cc2C(F)(F)F)CC1` [TL5-139], the figure is 191 nM; as for `CCN1CCN(Cc2ccc(NC(=O)c3ccnc(NC(=O)c4cncc(-c5cccs5)c4)c3)cc2C(F)(F)F)CC1` [TL5-145], 391 nM.
As for `C[C@H]1[C@@H](O)O[C@@H]2O[C@@]3(C)CC[C@H]4[C@H](C)CC[C@@H]1[C@@]24OO3` [dihydroartemisinin (DHA), dihydroartemisinin, reference compound], the Killing profile result in the assay on P. falciparum Dd2 [3] is on record as “pronounced irreversible killing”.
